Measured values taken from ChEMBL document CHEMBL3885861, “Open TG-GATES”.

Organism: Rattus norvegicus
Test: Open TG-GATES - Regimen: Daily Repeat
Format: toxicity, organism-based, Sprague-Dawley
Design: regimen Daily Repeat, gender Male, age 6 weeks
Details: in vivo, po, 750 mg/kg, route gavage, dose level High; for APTT / Bas / Eos / Fbg / Hb / Ht / Lym / MCH / MCHC / MCV / Mono / Neu / PT / Plat / RBC / Ret / WBC: tissue Blood; for KIDNEY_L / KIDNEY_R / KIDNEY_TOTAL: tissue Kidney; for LIVER: tissue Liver; for A/G / ALP / ALT / AST / BUN / CRE / Ca / Cl / DBIL / GLC / IP / K / LDH / Na / PL / RALB / TBIL / TC / TG / TP / gamma-GTP: tissue Plasma

`CN(C/C=C/C#CC(C)(C)C)Cc1cccc2ccccc12` [TERBINAFINE] showed a TERMINAL_BW (72 h, time 3 day) of 217.7 g, an APTT (72 h, time 3 day) of 22.6 s and a Bas (72 h, time 3 day) of 0.8%. It also gave an Eos (72 h, time 3 day) of 0.8%, a Fbg (72 h, time 3 day) of 200.6 mg/dL and a Hb (72 h, time 3 day) of 14.1 g/dL. It also gave a Ht (72 h, time 3 day) of 41.1%, a Lym (72 h, time 3 day) of 82.8% and an MCH (72 h, time 3 day) of 20.9 pg. For the same molecule, the MCHC (72 h, time 3 day) was 34.2%, the MCV (72 h, time 3 day) was 61 fL and the Mono (72 h, time 3 day) was 2.6%. It also gave a Neu (72 h, time 3 day) of 13%, a PT (72 h, time 3 day) of 12.5 s and a Plat (72 h, time 3 day) of 137.3 x10_4/uL. It also gave an RBC (72 h, time 3 day) of 673.8 x10_4/ul, a Ret (72 h, time 3 day) of 4.5% and a WBC (72 h, time 3 day) of 64.8 x10_2/uL. For the same molecule, the KIDNEY_L (72 h, time 3 day) was 1 g, the KIDNEY_R (72 h, time 3 day) was 1.1 g and the KIDNEY_TOTAL (72 h, time 3 day) was 2.1 g. The LIVER (72 h, time 3 day) was 11.4 g, the A/G (72 h, time 3 day) was 2 and the ALP (72 h, time 3 day) was 748.6 IU/L. For the same molecule, the ALT (72 h, time 3 day) was 34.6 IU/L, the AST (72 h, time 3 day) was 62.6 IU/L and the BUN (72 h, time 3 day) was 10.6 mg/dL. The CRE (72 h, time 3 day) was 0.4 mg/dL, the Ca (72 h, time 3 day) was 9.5 mg/dL and the Cl (72 h, time 3 day) was 102.8 meq/L. For the same molecule, the DBIL (72 h, time 3 day) was 0.09 mg/dL, the GLC (72 h, time 3 day) was 172 mg/dL and the IP (72 h, time 3 day) was 9.2 mg/dL. For the same molecule, the K (72 h, time 3 day) was 3.8 meq/L, the LDH (72 h, time 3 day) was 207.4 IU/L and the Na (72 h, time 3 day) was 140.8 meq/L. The PL (72 h, time 3 day) was 123.2 mg/dL, the RALB (72 h, time 3 day) was 3.6 g/dL and the TBIL (72 h, time 3 day) was 0.2 mg/dL. For the same molecule, the TC (72 h, time 3 day) was 81 mg/dL, the TG (72 h, time 3 day) was 19.2 mg/dL and the TP (72 h, time 3 day) was 5.4 g/dL. The gamma-GTP (72 h, time 3 day) was 1.8 IU/L, the TERMINAL_BW ([…], time 7 day) was 187.9 g and the TERMINAL_BW ([…], time 14 day) was 255.9 g. For the same molecule, the TERMINAL_BW ([…], time 28 day) was 360.5 g, the APTT ([…], time 7 day) was 45.7 s and the Bas ([…], time 7 day) was 1%. It also gave an Eos ([…], time 7 day) of 0.6%, a Fbg ([…], time 7 day) of 187.6 mg/dL and a Hb ([…], time 7 day) of 15.9 g/dL. It also gave a Ht ([…], time 7 day) of 45.2%, a Lym ([…], time 7 day) of 77.6% and an MCH ([…], time 7 day) of 21.1 pg. The MCHC ([…], time 7 day) was 35.2%, the MCV ([…], time 7 day) was 59.8 fL and the Mono ([…], time 7 day) was 4.6%. It also gave a Neu ([…], time 7 day) of 15.8%, a PT ([…], time 7 day) of 30.8 s and a Plat ([…], time 7 day) of 146 x10_4/uL. The RBC ([…], time 7 day) was 755 x10_4/ul, the Ret ([…], time 7 day) was 0.3% and the WBC ([…], time 7 day) was 82.6 x10_2/uL. For the same molecule, the APTT ([…], time 14 day) was 21.4 s, the Bas ([…], time 14 day) was 0.6% and the Eos ([…], time 14 day) was 0.6%. It also gave a Fbg ([…], time 14 day) of 198.4 mg/dL, a Hb ([…], time 14 day) of 13.8 g/dL and a Ht ([…], time 14 day) of 40.2%. The Lym ([…], time 14 day) was 70.4%, the MCH ([…], time 14 day) was 20.7 pg and the MCHC ([…], time 14 day) was 34.3%. For the same molecule, the MCV ([…], time 14 day) was 60.3 fL, the Mono ([…], time 14 day) was 3.2% and the Neu ([…], time 14 day) was 24.4%. The PT ([…], time 14 day) was 11.9 s, the Plat ([…], time 14 day) was 119.4 x10_4/uL and the RBC ([…], time 14 day) was 667 x10_4/ul. The Ret ([…], time 14 day) was 5.8%, the WBC ([…], time 14 day) was 116.6 x10_2/uL and the APTT ([…], time 28 day) was 26 s. The Bas ([…], time 28 day) was 0.4%, the Eos ([…], time 28 day) was 1% and the Fbg ([…], time 28 day) was 211.6 mg/dL. It also gave a Hb ([…], time 28 day) of 14 g/dL, a Ht ([…], time 28 day) of 40.2% and a Lym ([…], time 28 day) of 76.4%. It also gave an MCH ([…], time 28 day) of 19.8 pg, an MCHC ([…], time 28 day) of 34.8% and an MCV ([…], time 28 day) of 57.1 fL. The Mono ([…], time 28 day) was 3.4%, the Neu ([…], time 28 day) was 18.4% and the PT ([…], time 28 day) was 12.8 s. It also gave a Plat ([…], time 28 day) of 110.7 x10_4/uL, an RBC ([…], time 28 day) of 705.6 x10_4/ul and a Ret ([…], time 28 day) of 2.9%. It also gave a WBC ([…], time 28 day) of 115.7 x10_2/uL, a KIDNEY_L ([…], time 7 day) of 1.1 g and a KIDNEY_R ([…], time 7 day) of 1.1 g. For the same molecule, the KIDNEY_TOTAL ([…], time 7 day) was 2.2 g, the KIDNEY_L ([…], time 14 day) was 1.2 g and the KIDNEY_R ([…], time 14 day) was 1.3 g. The KIDNEY_TOTAL ([…], time 14 day) was 2.5 g, the KIDNEY_L ([…], time 28 day) was 1.6 g and the KIDNEY_R ([…], time 28 day) was 1.7 g. It also gave a KIDNEY_TOTAL ([…], time 28 day) of 3.3 g, an LIVER ([…], time 7 day) of 12.4 g and an LIVER ([…], time 14 day) of 16.5 g. The LIVER ([…], time 28 day) was 21.9 g, the A/G ([…], time 7 day) was 1.9 and the ALP ([…], time 7 day) was 692.8 IU/L. For the same molecule, the ALT ([…], time 7 day) was 52 IU/L, the AST ([…], time 7 day) was 81.4 IU/L and the BUN ([…], time 7 day) was 14.6 mg/dL. For the same molecule, the CRE ([…], time 7 day) was 0.5 mg/dL, the Ca ([…], time 7 day) was 9.1 mg/dL and the Cl ([…], time 7 day) was 103.6 meq/L. For the same molecule, the DBIL ([…], time 7 day) was 0.1 mg/dL, the GLC ([…], time 7 day) was 141 mg/dL and the IP ([…], time 7 day) was 7 mg/dL. It also gave a K ([…], time 7 day) of 4.6 meq/L, an LDH ([…], time 7 day) of 214.2 IU/L and a Na ([…], time 7 day) of 142.4 meq/L. For the same molecule, the PL ([…], time 7 day) was 145 mg/dL, the RALB ([…], time 7 day) was 3.5 g/dL and the TBIL ([…], time 7 day) was 0.2 mg/dL. For the same molecule, the TC ([…], time 7 day) was 96.8 mg/dL, the TG ([…], time 7 day) was 21.4 mg/dL and the TP ([…], time 7 day) was 5.3 g/dL. The gamma-GTP ([…], time 7 day) was 2.6 IU/L, the A/G ([…], time 14 day) was 1.7 and the ALP ([…], time 14 day) was 536.8 IU/L. It also gave an ALT ([…], time 14 day) of 37 IU/L, an AST ([…], time 14 day) of 60.2 IU/L and a BUN ([…], time 14 day) of 15.8 mg/dL. It also gave a CRE ([…], time 14 day) of 0.4 mg/dL, a Ca ([…], time 14 day) of 10.4 mg/dL and a Cl ([…], time 14 day) of 103 meq/L. It also gave a DBIL ([…], time 14 day) of 0.074 mg/dL, a GLC ([…], time 14 day) of 183 mg/dL and an IP ([…], time 14 day) of 7.8 mg/dL. The K ([…], time 14 day) was 4 meq/L, the LDH ([…], time 14 day) was 151.8 IU/L and the Na ([…], time 14 day) was 142.8 meq/L. The PL ([…], time 14 day) was 136.4 mg/dL, the RALB ([…], time 14 day) was 3.8 g/dL and the TBIL ([…], time 14 day) was 0.1 mg/dL. It also gave a TC ([…], time 14 day) of 82 mg/dL, a TG ([…], time 14 day) of 20.4 mg/dL and a TP ([…], time 14 day) of 6.1 g/dL. It also gave a gamma-GTP ([…], time 14 day) of 1.2 IU/L, an A/G ([…], time 28 day) of 1.8 and an ALP ([…], time 28 day) of 601.2 IU/L. It also gave an ALT ([…], time 28 day) of 50 IU/L, an AST ([…], time 28 day) of 65.4 IU/L and a BUN ([…], time 28 day) of 14.8 mg/dL. The CRE ([…], time 28 day) was 0.5 mg/dL, the Ca ([…], time 28 day) was 10.2 mg/dL and the Cl ([…], time 28 day) was 103.2 meq/L. It also gave a DBIL ([…], time 28 day) of 0.08 mg/dL, a GLC ([…], time 28 day) of 197.2 mg/dL and an IP ([…], time 28 day) of 8 mg/dL. For the same molecule, the K ([…], time 28 day) was 3.8 meq/L, the LDH ([…], time 28 day) was 178.8 IU/L and the Na ([…], time 28 day) was 142.4 meq/L. It also gave a PL ([…], time 28 day) of 146.4 mg/dL, an RALB ([…], time 28 day) of 3.9 g/dL and a TBIL ([…], time 28 day) of 0.2 mg/dL. The TC ([…], time 28 day) was 88.4 mg/dL, the TG ([…], time 28 day) was 18.2 mg/dL and the TP ([…], time 28 day) was 6.1 g/dL. The gamma-GTP ([…], time 28 day) was 1.6 IU/L.
